Source: PMC4322352, “Sirtinol Inhibits Neutrophil Elastase Activity and Attenuates Lipopolysaccharide-Mediated Acute Lung Injury in Mice” (Scientific Reports, 2015)

Target: T1, human neutrophil elastase (HNE) (Homo sapiens, UniProt P08246)
T1 construct: gene ELANE
T1 sequence (P08246 30-247): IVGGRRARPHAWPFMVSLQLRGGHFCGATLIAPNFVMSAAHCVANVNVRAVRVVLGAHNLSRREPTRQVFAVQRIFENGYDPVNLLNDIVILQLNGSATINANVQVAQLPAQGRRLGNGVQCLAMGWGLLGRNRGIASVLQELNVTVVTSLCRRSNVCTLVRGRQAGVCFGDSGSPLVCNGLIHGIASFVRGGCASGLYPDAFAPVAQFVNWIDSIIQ
Assay: chromogenic enzymatic assay with purified HNE, absorbance at […] nm
Assay type: biochemical

Structure (SMILES): CC(NC(=O)c1ccccc1/N=C/c1c(O)ccc2ccccc12)c1ccccc1 (stereo not shown) [Sirtinol, 2-[(2-hydroxynaphthalen-1-ylmethylene)amino]-N-(1-phenethyl) benzamide]
- IC50: 8.4 ± 0.53 µM
